Consider one compound from article PMC8162438, “Cancer cell-selective modulation of mitochondrial respiration and metabolism by potent organogold(III) dithiocarbamates” (Chemical Science, 2020).

The structures appear in SMILES notation.

One test relates to MRC5. In words: Seahorse XF96 mitochondria stress test (OCR), MRC5. The class given is cell-based, human. As to conditions: MRC5, 0.1–3 μM.
The subject of another test is MDA-MB-231. Description: Whole-cell uptake after pre-treatment with uptake inhibitors (GF-AAS). The class given is cell-based. As to conditions: MDA-MB-231, 5 μM, 24 h; NaN3, chlorpromazine, Me-β-CD, genistein, wortmannin. Here is the method:
To understand cell uptake mechanisms, detailed uptake studies using GF-AAS were conducted whereby MDA-MB-231 cells were incubated with gold compound, 2a after cellular pretreatment with one of a number of known inhibitors of cellular uptake. Sodium azide (NaN3), which is known to inhibit mitochondrial oxidative phosphorylation, was used as a general inhibitor of energy (ATP)-dependent (active) uptake; chlorpromazine (CL) was utilized as an inhibitor of clathrin-dependent endocytosis (CDE); β-cyclodextrin (Me-β-CD) and genestein (Gen) were used as inhibitors of clathrin-independent endocytosis (CIE); and, wortmannin (Wort) was employed as a known inhibitor of micropinocytosis. […] Being an […] pathway illustrates that these compounds are not dependent on oxidative phosphorylation for uptake, despite; their ability to modulate OXPHOS. […]
and treated at a final concentration of 5 µ M and treated for 24 hours as well. The cells were then collected by trypsinization and centrifuged at 2000 rpm for 5 minutes to form a pellet. […]
text (Figure 5C). Samples 37 °C, NaN 3, methyl-β-cyclodextrin, and chlorpromazine hydrochloride were calculated using calibration curve Fig. S134 and samples wortmannin, genistein, and +4 °C were calculated using calibration curve Fig. S135. […]

Turning to `C[N+](C)=C1[S][Au-2]2([S]1)[c]1ccccc1Cc1cccc[n+]12.F[P-](F)(F)(F)(F)F` (centres unmarked) [2a], the “Effect on OCR of MRC5” value in the test with MRC5 is on record as “did not impact the OCR”. Besides, the “Uptake after pre-treatment with uptake inhibitors” value with MDA-MB-231 is listed as “significantly decreased with all inhibitors with the exception of NaN3”.
